# Reference: patent US20060148774A1, “Hypoglycemic agent” (Riken, priority 2001, published 2006)
# What was measured:
# c57BL db/db male mice [1] = assay: Oral glucose tolerance test (OGTT); assay type: in vivo; conditions: db/db mice 19-week old; for OGTT blood sugar level: glucose 2 g/kg oral
# Protocol: The animals were allowed to water ad libitum.
# For oral glucose tolerance test, the animals, starved for 16 hours from the night before of the end of the feeding (19-week old), were orally administered with glucose (2 g/kg), and the bloods were collected from orbital venous plexus at time 0 and after 60 and 120 minutes by using a capillary glass to measure blood sugar levels.
# Body weight = assay type: in vivo; conditions: db/db mice, 0.3% in the feed, 19-week old
# c57BL db/db male mice [2] = assay: Change in blood sugar level in Type-2 diabetes model mice fed 5-campesten-3-one in the feed; assay type: in vivo; conditions: for blood sugar level relative to control group (second group): 0.1% in the feed
# c57BL db/db male mice [3] = conditions: mouse, in vivo
# Protocol: (§1) 6-Week old c57BL db/db male mice, as being a Type-2 diabetes model animal having homozygote diabetes pathogenic gene (db), were divided in three groups each consisting of 10 animals. A group of healthy c57BL db/+m male mice (10 animals) having heterozygote db gene was used as a control group. The animals were housed in plastic cages for mice at five animals per cage. The animals were fed under feeding conditions at a temperature of 24±1° C. and a relative humidity of 55±5%, where light and darkness were controlled to change every 12 hours, and each cage and bedding materials were exchanged twice a week. The animals were allowed to water ad libitum.
# (§2) Feed CMF for mouse (Oriental Yeast Co.) was used as a basic feed, and 0.1% or 0.3% of 5-campesten-3-one was mixed to the feed to prepare an experimental feed. The resulting feeds were kept at 4° C. before the start of feeding.
# (§3) The animals were autopsied, and the brain, lungs, heart, liver, spleen, pancreas, kidneys, adrenals, and testis were macroscopically examined and weighed.
# c57BL db/db male mice [4] = conditions: 19-week old
# Protocol: as §1, §2, §3
# c57BL db/db male mice [5] = assay: Urinary sugar by urinary test paper; assay type: in vivo; conditions: for urinary sugar, Positive ratio: + or higher positive
# [6] = 0.3% in the feed, 7- to 17-week old
# [7] = 0.1% in the feed, week 7 (period 0 week)
# [8] = 0.1% in the feed, week 9 (period 2 weeks)
# [9] = 0.1% in the feed, week 11 (period 4 weeks)
# [10] = 0.1% in the feed, week 13 (period 6 weeks)
# [11] = 0.1% in the feed, week 15 (period 8 weeks)
# [12] = 0.1% in the feed, week 17 (period 10 weeks)
# [13] = 0.3% in the feed, week 7 (period 0 week)
# [14] = 0.3% in the feed, week 9 (period 2 weeks)
# [15] = 0.3% in the feed, week 11 (period 4 weeks)
# [16] = 0.3% in the feed, week 13 (period 6 weeks)
# [17] = 0.3% in the feed, week 15 (period 8 weeks)
# [18] = 0.3% in the feed, week 17 (period 10 weeks)
smiles,measurement,setting,value
CC(C)[C@H](C)CC[C@@H](C)[C@H]1CC[C@H]2[C@@H]3CC=C4CC(=O)CC[C@]4(C)[C@H]3CC[C@]12C [5-campesten-3-one],OGTT blood sugar levels compared to second group,"c57BL db/db male mice [1]; 0.1% in the feed, every measuring point",significantly lower than the levels of the second group at every measuring points
same,OGTT blood sugar level,"c57BL db/db male mice [1]; 0.1% in the feed, 60 minutes",703 mg/dL
same,OGTT blood sugar level,"c57BL db/db male mice [1]; 0.1% in the feed, 120 minutes",558 mg/dL
same,OGTT blood sugar level,"c57BL db/db male mice [1]; 0.1% in the feed, time 0",497 mg/dL
same,OGTT blood sugar level,"c57BL db/db male mice [1]; 0.3% in the feed, 60 minutes",almost the same 60-munites value as that of the third group
same,OGTT blood sugar level,"c57BL db/db male mice [1]; 0.3% in the feed, 120 minutes",440 mg/dL
same,OGTT blood sugar level,"c57BL db/db male mice [1]; 0.3% in the feed, time 0",282 mg/dL
same,body weight compared to control group (second group),Body weight,significantly higher
same,blood sugar level relative to control group (second group),c57BL db/db male mice [2]; 9-week old,increased
same,blood sugar level relative to control group (second group),c57BL db/db male mice [2]; 11-week old,decreased
same,blood sugar level relative to control group (second group),c57BL db/db male mice [2]; 17-week old,lower level
same,change with time in blood sugar level,c57BL db/db male mice [2]; [6],almost constant level without a significant increase
same,"blood sugar level, initial value","c57BL db/db male mice [2]; 0.3% in the feed, 7-week old",270 mg/dL
same,blood sugar level compared to control group (second group),"c57BL db/db male mice [2]; 0.3% in the feed, after 9-week old",significantly lower values at every measuring times after 9-week old
same,general conditions during the experimental period,c57BL db/db male mice [3],no abnormal findings such as diarrhea was observed
same,"autopsy of brain, heart, lungs, livers, pancreas, spleen, kidneys, adrenals","c57BL db/db male mice [4]; 0.1% and 0.3% in the feed, some mice with fat liver, as in the control db/db group",no particular abnormality was observed
same,weight of the testis (absolute weight) as % of that of the healthy mice (first group),"c57BL db/db male mice [4]; 0.3% in the feed, untreated diabetic mice 50 to 60%",85%
same,onset of positive urinary sugar,c57BL db/db male mice [5]; 0.1% in the feed,a delay in giving a positive result was observed
same,"urinary sugar, number of mice graded +",c57BL db/db male mice [5]; [7],1
same,"urinary sugar, number of mice graded ++",c57BL db/db male mice [5]; [7],0
same,"urinary sugar, number of mice graded +++",c57BL db/db male mice [5]; [7],4
same,"urinary sugar, number of mice graded ±",c57BL db/db male mice [5]; [7],1
same,"urinary sugar, number of mice graded −",c57BL db/db male mice [5]; [7],2
same,"urinary sugar, Positive ratio",c57BL db/db male mice [5]; [7],63%
same,"urinary sugar, number of mice graded +",c57BL db/db male mice [5]; [8],0
same,"urinary sugar, number of mice graded ++",c57BL db/db male mice [5]; [8],2
same,"urinary sugar, number of mice graded +++",c57BL db/db male mice [5]; [8],2
same,"urinary sugar, number of mice graded ±",c57BL db/db male mice [5]; [8],2
same,"urinary sugar, number of mice graded −",c57BL db/db male mice [5]; [8],1
same,"urinary sugar, Positive ratio",c57BL db/db male mice [5]; [8],57%
same,"urinary sugar, number of mice graded +",c57BL db/db male mice [5]; [9],1
same,"urinary sugar, number of mice graded ++",c57BL db/db male mice [5]; [9],0
same,"urinary sugar, number of mice graded +++",c57BL db/db male mice [5]; [9],7
same,"urinary sugar, number of mice graded ±",c57BL db/db male mice [5]; [9],0
same,"urinary sugar, number of mice graded −",c57BL db/db male mice [5]; [9],1
same,"urinary sugar, Positive ratio",c57BL db/db male mice [5]; [9],89%
same,"urinary sugar, number of mice graded +",c57BL db/db male mice [5]; [10],0
same,"urinary sugar, number of mice graded ++",c57BL db/db male mice [5]; [10],0
same,"urinary sugar, number of mice graded +++",c57BL db/db male mice [5]; [10],9
same,"urinary sugar, number of mice graded ±",c57BL db/db male mice [5]; [10],0
same,"urinary sugar, number of mice graded −",c57BL db/db male mice [5]; [10],0
same,"urinary sugar, Positive ratio",c57BL db/db male mice [5]; [10],100%
same,"urinary sugar, number of mice graded +",c57BL db/db male mice [5]; [11],0
same,"urinary sugar, number of mice graded ++",c57BL db/db male mice [5]; [11],1
same,"urinary sugar, number of mice graded +++",c57BL db/db male mice [5]; [11],8
same,"urinary sugar, number of mice graded ±",c57BL db/db male mice [5]; [11],0
same,"urinary sugar, number of mice graded −",c57BL db/db male mice [5]; [11],0
same,"urinary sugar, Positive ratio",c57BL db/db male mice [5]; [11],100%
same,"urinary sugar, number of mice graded +",c57BL db/db male mice [5]; [12],1
same,"urinary sugar, number of mice graded ++",c57BL db/db male mice [5]; [12],0
same,"urinary sugar, number of mice graded +++",c57BL db/db male mice [5]; [12],8
same,"urinary sugar, number of mice graded ±",c57BL db/db male mice [5]; [12],0
same,"urinary sugar, number of mice graded −",c57BL db/db male mice [5]; [12],0
same,"urinary sugar, Positive ratio",c57BL db/db male mice [5]; [12],100%
same,"positive ratio of urinary sugar, range over the test period",c57BL db/db male mice [5]; [6],14 to 70%
same,positive degrees of urinary sugar compared to control group (second group),"c57BL db/db male mice [5]; 0.3% in the feed, almost a half of the mice + (150 mg/dl) or ++ (500 mg/dl)",lower than the results of the control group
same,"urinary sugar, number of mice graded +",c57BL db/db male mice [5]; [13],0
same,"urinary sugar, number of mice graded ++",c57BL db/db male mice [5]; [13],0
same,"urinary sugar, number of mice graded +++",c57BL db/db male mice [5]; [13],1
same,"urinary sugar, number of mice graded ±",c57BL db/db male mice [5]; [13],0
same,"urinary sugar, number of mice graded −",c57BL db/db male mice [5]; [13],6
same,"urinary sugar, Positive ratio",c57BL db/db male mice [5]; [13],14%
same,"urinary sugar, number of mice graded +",c57BL db/db male mice [5]; [14],0
same,"urinary sugar, number of mice graded ++",c57BL db/db male mice [5]; [14],1
same,"urinary sugar, number of mice graded +++",c57BL db/db male mice [5]; [14],0
same,"urinary sugar, number of mice graded ±",c57BL db/db male mice [5]; [14],0
same,"urinary sugar, number of mice graded −",c57BL db/db male mice [5]; [14],4
same,"urinary sugar, Positive ratio",c57BL db/db male mice [5]; [14],20%
same,"urinary sugar, number of mice graded +",c57BL db/db male mice [5]; [15],0
same,"urinary sugar, number of mice graded ++",c57BL db/db male mice [5]; [15],2
same,"urinary sugar, number of mice graded +++",c57BL db/db male mice [5]; [15],3
same,"urinary sugar, number of mice graded ±",c57BL db/db male mice [5]; [15],1
same,"urinary sugar, number of mice graded −",c57BL db/db male mice [5]; [15],2
same,"urinary sugar, Positive ratio",c57BL db/db male mice [5]; [15],63%
same,"urinary sugar, number of mice graded +",c57BL db/db male mice [5]; [16],1
same,"urinary sugar, number of mice graded ++",c57BL db/db male mice [5]; [16],2
same,"urinary sugar, number of mice graded +++",c57BL db/db male mice [5]; [16],2
same,"urinary sugar, number of mice graded ±",c57BL db/db male mice [5]; [16],0
same,"urinary sugar, number of mice graded −",c57BL db/db male mice [5]; [16],5
same,"urinary sugar, Positive ratio",c57BL db/db male mice [5]; [16],50%
same,"urinary sugar, number of mice graded +",c57BL db/db male mice [5]; [17],1
same,"urinary sugar, number of mice graded ++",c57BL db/db male mice [5]; [17],1
same,"urinary sugar, number of mice graded +++",c57BL db/db male mice [5]; [17],2
same,"urinary sugar, number of mice graded ±",c57BL db/db male mice [5]; [17],1
same,"urinary sugar, number of mice graded −",c57BL db/db male mice [5]; [17],4
same,"urinary sugar, Positive ratio",c57BL db/db male mice [5]; [17],44%
same,"urinary sugar, number of mice graded +",c57BL db/db male mice [5]; [18],3
same,"urinary sugar, number of mice graded ++",c57BL db/db male mice [5]; [18],1
same,"urinary sugar, number of mice graded +++",c57BL db/db male mice [5]; [18],3
same,"urinary sugar, number of mice graded ±",c57BL db/db male mice [5]; [18],2
same,"urinary sugar, number of mice graded −",c57BL db/db male mice [5]; [18],1
same,"urinary sugar, Positive ratio",c57BL db/db male mice [5]; [18],70%
